The record followed here is US6162610A, “Xanthan-ester and acridan substrates for horseradish peroxidase” (Tropix, Inc., priority 1998, dated 2000).

Assay [1] has as its system HRP. Nature of the assay: Effect of detergents and polymers on chemiluminescent signal from xanthene substrate with HRP. Format: biochemical, horseradish. The note with it: H2O2, no HRP, 19 minute incubation, citrate buffer pH 7.0. Here is the method: (§1) Detergent was added to the buffer solution to increase the solubility of the assay components. The use of polymeric quaternary amines, neutral detergents and cationic detergents was compared using polyvinylbenzyltributylammonium chloride (Sapphire II, Tropix), Tween-20 (Sigma) and […] (CTAB, Sigma). Luminescence was measured in white opaque microplate wells using a Dynatech ML3000 luminometer. First, background signal was measured after the addition of hydrogen peroxide (10 μL of 3.5 mM stock solution) to 0.12 mL of 1.17 mM xanthene substrate (14) in 0.1 M citrate buffer pH 7.0 containing, 0.42 mg/mL hydroxypropylmethylcellulose and 4-iodophenol (iodophenol concentration was 71.4 μg/mL for the Sapphire II and Tween-20 solutions and 178.6 μg/mL for the CTAB solution) after a 19 minute incubation. HRP, 10 μL containing 5 fmol, was added to each well and the chemiluminescence was measured after a 19 min incubation.

For assay [2], the target named is T1, HRP (Armoracia rusticana, UniProt P00433).
T1 sequence (P00433 31-338 limits assumed): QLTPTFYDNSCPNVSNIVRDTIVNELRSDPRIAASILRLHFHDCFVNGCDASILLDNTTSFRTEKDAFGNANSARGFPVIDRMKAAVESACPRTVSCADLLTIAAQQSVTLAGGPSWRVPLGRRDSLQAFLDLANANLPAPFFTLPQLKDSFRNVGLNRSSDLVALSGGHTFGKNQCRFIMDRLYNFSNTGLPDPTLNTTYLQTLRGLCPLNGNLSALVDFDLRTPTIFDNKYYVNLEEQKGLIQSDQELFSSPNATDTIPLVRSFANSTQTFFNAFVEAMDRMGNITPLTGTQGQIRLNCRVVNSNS
Described as above. Format: biochemical, horseradish. The note with it: 5 fmol HRP; for Signal + HRP: 19 min incubation. Here is the method: as §1

For assay [3], the target named is T2, horseradish peroxidase (HRP, Type VIA) (Armoracia rusticana, UniProt P00433).
T2 sequence (P00433 31-338 limits assumed): T1 sequence (P00433 31-338 limits assumed)
Briefly: Comparison of Xanthene substrate (14) and Enhanced Chemiluminescence (ECL), HRP dilution series. Format: biochemical. The following applies: for RLU: Xanthene substrate with 4-phenylphenol, Emerald II, read after 40 minutes; for S/N: Xanthene substrate, 40 minutes. Here is the method:
The following conditions were used for the comparison of ECL(a commercially available optimized reagent containing Luminol-an amino-substituted cyclic acylhydrazide) and Xanthene substrate (14). ECL reagents were obtained from Amersham and were used as recommended by the manufacturer. Aliquots of horseradish peroxidase (HRP, Type VIA), 10 μL, containing 0,0.5, 5.0, 50.0, 500.0 and 5000.0 attomoles HRP were then added to 0.13 mL of each reagent formulation. To evaluate Xanthene substrate, hydrogen peroxide (10 μL of a 3.5 mM stock) was added to 10 μL of each HRP dilution and the reaction was initiated by addition of a solution of 0.12 mL of 1.17 mM Xanthene substrate in 0.1 M citrate buffer pH 7.0 containing 1.22 mM 4-phenylphenol, 0.42 mg/mL hydroxypropylmethylcellulose and 0.167 mg/mL Emerald II. The chemiluminescent signal was measured in a Dynatech ML3000 luminometer after 1 minute for ECL and 40 minutes for Xanthene substrate.

[4] abbreviates: Tween-20, 4-iodophenol 71.4 μg/mL.

The structures appear in SMILES notation.

On to `O=C(Oc1ccccc1)C1c2ccccc2Oc2cc(O)ccc21` (stereo not shown) [compound 14, 3-Hydroxy-9H-9-xanthene-carboxylic acid, phenyl ester], for which the Background in assay [1] (CTAB, 4-iodophenol 178.6 μg/mL) was 2.45; in assay [1] (Sapphire II (polyvinylbenzyltributylammonium chloride), 4-iodophenol 71.4 μg/mL), 14.83; in assay [1] (setting [4]), 0.0242. Also, the S/N in assay [2] (CTAB) turned out to be 1.5; in assay [2] (Sapphire II), 15.4; in assay [2] (Tween-20) it was 1.8; in assay [3] (HRP 0.5 amol), 1.11; in assay [3] (HRP 5 amol), 1.37; in assay [3] (HRP 50 amol), 4.95. Also, the S/N came out at 27.70 in assay [3] (HRP 500 amol) and 58.06 in assay [3] (HRP 5000 amol). The “Signal + HRP” value in assay [2] (CTAB, 4-iodophenol 178.6 μg/mL) is given as 3.78; in assay [2] (Sapphire II, 4-iodophenol 71.4 μg/mL), 229.05; in assay [2] (setting [4]), 0.0439. Further, the RLU is 14.12 RLU in assay [3] (HRP 0.5 amol); 17.52 RLU in assay [3] (HRP 5 amol); 63.12 RLU in assay [3] (HRP 50 amol); 353.31 RLU in assay [3] (HRP 500 amol); 740.51 RLU in assay [3] (HRP 5000 amol).
